35 substances from publication PMC9958131 (Nature Communications, 2023) can be followed below.

No end group written: not given here. *: point of attachment. Cam = NC(=O)C*

The first data set relates to recombinant human PAD2 and PAD4. In words: Citrullination site mapping by trypsin digestion and mass spectrometry; protein-level modifications over native, PAD2- and PAD4-citrullinated samples combined. Type of data set: biochemical. The note with it: trypsin digest, Sequest HT search; co-identified proteins in the fibrinogen and vimentin samples (native, PAD2-cit, PAD4-cit); not split by sample or enzyme. The source says: (§1) Description: Raw mass spectrometry data for proteolytic mapping of fibrinogen, vimentin, and hnRNP A2/B1 by cathepsins B, S, and H (sheets 1-6); citrullination site mapping of fibrinogen and vimentin by trypsin digestion (sheets 7-8); and the natural antigen processing assay with native, PAD2-citrullinated (PAD2-cit), and PAD4-citrullinated (PAD4-cit) fibrinogen (sheets 9-11).
Regarding Hornerin, the “Modifications (Deamidated [R...] = citrullinated arginine positions found)” value is “Deamidated [R1507; R2447; R3930]”. Regarding Heat shock cognate 71 kDa protein, the “Modifications (Deamidated [R...] = citrullinated arginine positions found)” value was “Deamidated [R323]”.

As to Serotransferrin, the “Modifications (Deamidated [R...] = citrullinated arginine positions found)” value is “Deamidated [R239]”.

Consider Interleukin-8, for which the “Modifications (Deamidated [R...] = citrullinated arginine positions found)” value is “Deamidated [R74]”. Take Pre-mRNA-processing-splicing factor 8: the “Modifications (Deamidated [R...] = citrullinated arginine positions found)” value is “Deamidated [R362]”.

In the case of Filaggrin-2, the “Modifications (Deamidated [R...] = citrullinated arginine positions found)” value was “Deamidated [R63]”. Still for that read-out and setting: the result for Tubulin beta-2A chain reads “Deamidated [R2; R121]”; that for Clusterin, “Deamidated [R306; R425]”. Regarding Tubulin beta chain, the “Modifications (Deamidated [R...] = citrullinated arginine positions found)” value was “Deamidated [R2; R121; R156; R162]”. The same measure, in the same setting: as for “Glyceraldehyde-3-phosphate dehydrogenase”, the entry is “Deamidated [R80]”.

For a further data set, the system named is PAD2 / PAD4. The data set is described as follows: Citrullination site mapping of fibrinogen and vimentin by trypsin digestion, protein-level sheet (native, PAD2- and PAD4-citrullinated samples searched together). The data set is classed as biochemical, Homo sapiens. As to conditions: deamidated Arg (= citrullinated) positions found by Sequest HT after trypsin digestion; one list for all six samples (native, PAD2-, PAD4-citrullinated fibrinogen and vimentin); co-purified/contaminant proteins.
From the text: as §1
Regarding “MYLNVIINNTWQGDFSQIKVFLMTLKNMISKLKTECGCQFTSKLEGMFRDMSISNTTMDEFRQHLQATGVSLGGVDLTVRVLTTGYWPTQSATPKCNIPPAPRHAFEIFRRFYLAKHSGRQLTLQHHMGSADLNATFYGPVKKEDGSEVGVGGAQVTGSNTRKHILQVSTFQMTILMLFNNREKYTFEEIQQETDIPERELVRALQSLACGKPTQRVLTKEPKSKEIENGHIFTVNDQFTSKLHRVKIQTVAAKQGESDPERKETRQKVDDDRKHEIEAAIVRIMKSRKKMQHNVLVAEVTQQLKARFLPSPVVIKKRIEGLIEREYLARTPEDRKVYTYVA [Peptide A0A087WTG3]”, the Modifications entry is “Deamidated [R283]”. Still for that read-out and setting: as for “P62269 (IPDWFLNRQK; also: deamidated, site not given here) [Peptide P62269]”, the entry is “Deamidated [R86]”. Still for that read-out and setting: the result for “P22090 (LREC(Cam)LPLIVFLR) [Peptide P22090]” reads “Deamidated [R39]”.

A further data set relates to PAD2 and PAD4. The data set is described as follows: Citrullination site mapping of fibrinogen and vimentin by trypsin digestion and mass spectrometry (protein-level sheet, one search over native, PAD2-cit and PAD4-cit samples). As to conditions: modified residues found per protein; Deamidated [R..] = deamidated (citrullinated) arginine positions; trypsin digest, Sequest HT; not split by sample (native, PAD2-citrullinated, PAD4-citrullinated fibrinogen and vimentin). Type of data set: biochemical, human.
From the text: as §1
In the case of P23142 (VRPIVGPFH) [Peptide P23142], the Modifications entry is “Deamidated [R90; R179; R181; R287; R289; R343; R353; R467; R561; R562; R582; R642]”. The same measure, in the same setting: the result for “P35527 (GGGGGGGLGSGGSIRSSY) [Peptide P35527]” reads “Deamidated [R95; R163; R233; R250; R261; R327; R374; R427]”; that for A0A4W9A917 [Peptide A0A4W9A917], “Deamidated [R365]”.

In the case of P41219 (EYQELLNVK) [Peptide P41219], the Modifications result is “Deamidated [R397]”. On the same count and under the same terms, the result for P01834 [Peptide P01834] reads “Deamidated [R1]”; that for “P04259 (ATGGGLSSVGGGSSTIK) [Peptide P04259]”, “Deamidated [R182; R222; R326; R369]”; that for “P17661 (VELQELNDRFANYIEKVR; also: deamidated, site not given here) [Peptide P17661]”, “Deamidated [R118; R386]”.

For the substance P05160 (LIENGYFHPVK) [Peptide P05160], the Modifications entry is “Deamidated [R69; R147; R271; R273; R380; R424; R432; R463; R507; R603]”. For P04275 (IDVPWNVVPEK) [Peptide P04275], the Modifications entry is “Deamidated [R236; R768; R782; R816; R906; R945; R1204; R1205; R1597; R1641; R1853; R1888; R1916; R1921; R1924; R1943; R1956; R1998; R2099; R2185; R2464; R2535; R2663; R2681; R2730]”.

Regarding “P49771 (LLQETSEQLVALKPWITR; also: deamidated, site not given here) [Peptide P49771]”, the Modifications result was “Deamidated [R81; R85; R100; R147]”. Consider “Q14525 (EVEQWFATQTEELNK) [Peptide Q14525]”, for which the Modifications entry was “Deamidated [R293]”. As to “P48668 (QC(Cam)ASLQAAIADAEQR) [Peptide P48668]”, the Modifications result was “Deamidated [R182; R222; R326]”. For “P04264 (GGGFGGGGIGGGGFGG) [Peptide P04264]”, the Modifications entry was “Deamidated [R29; R65; R239; R267; R277; R386; R432; R483; R518; R549]”.

As to “Vimentin: recombinant human vimentin (PeproTech), RA autoantigen; native or citrullinated by PAD2 or PAD4”, the Modifications result is “Deamidated [R13; R23; R28; R36; R45; R50; R64; R69; R71; R78; R100; R113; R122; R145; R155; R158; R159; R170; R175; R184; R186; R196; R207; R217; R222; R270; R273; R304; R310; R320; R321; R342; R345; R364; R378; R381; R401; R410; R424; R440; R450]”. For P01024 [Peptide P01024], the Modifications result was “Deamidated [R315; R386; R462; R710; R712; R1134; R1507; R1512; R1532; R1582]”. On the same count and under the same terms, as for P02751 [Peptide P02751], the entry is “Deamidated [R83; R107; R114; R130; R155; R156; R241; R252; R265; R272; R290; R479; R694; R784; R1157; R1197; R1473; R1525; R1543; R1664; R1844; R1909; R1950; R1982; R2165; R2335; R2340; R2357; R2417; R2426; R2447; R2451]”; as for P08779 [Peptide P08779], “Deamidated [R127; R284; R441]; Met-loss+Acetyl [N-Term]”. On to “P35908 (GPGGFGPGGYPGGIHE) [Peptide P35908]”, for which the Modifications entry is “Deamidated [R45; R122; R221; R238; R247; R341; R384; R524; R544]”. Same read-out and setting: as for P01876 [Peptide P01876], the entry is “Deamidated [R253; R263; R273]”; as for “Q15323 (LNVEVDAAPTVDLNR) [Peptide Q15323]”, “Deamidated [R293]”.

Regarding P02768 [Peptide P02768], the Modifications entry was “Deamidated [R105; R122; R138; R141; R169; R281; R434; R452; R469; R509]”. As for P13645 (LQIDNARLAADDF) [Peptide P13645], the Modifications result is “Deamidated [R15; R35; R156; R228; R245; R256; R322; R333; R399; R441; R450]”.

The next data set concerns cathepsins B, S, and H. The data set is described as follows: Proteolytic mapping (ProtMap) of native and citrullinated autoantigens by cathepsins B, S, and H with LFQ-MS. Type of data set: biochemical, human. As to conditions: sites found over all samples of the cathepsin B, H digests, MSFragger search. The method, then:
Prior to proteolytic mapping, citrullinated antigens were generated by incubating recombinant human antigens—hnRNP A2/B1 (RA33; custom-made as previously described by in ref. [24]), fibrinogen (Cayman Chemical), and vimentin (PeproTech)—with Sf9-purified peptidylarginine deiminase 2 or 4 (PAD2 or PAD4; Inova) at a 17:1 mass ratio in citrullination buffer (100 mM Tris, 1 mM DTT, 5 mM CaCl2, pH 7.5) for 4 h at 37 °C. Native antigens were diluted in the same buffer without PAD enzymes and without incubation at 37 °C to prevent degradation. Citrullination was confirmed by anti-peptidylcitrulline (clone F95, EMD Millipore) immunoblotting. […] The resulting peptide repertoires were then analyzed by LFQ–MS.
Prior to MS, the samples were reduced and alkylated by incubating in 10 mM Tris (2-Carboxyethyl) phosphine hydrochloride (TCEP, v/v) and 50 mM chloroacetamide (CAA, v/v) for 1 h at room temperature. […] The peptide samples were analyzed on an Orbitrap Fusion Lumos Tribrid mass spectrometer interfaced with an Ultimate 3000 RS Autosampler nanoflow liquid chromatography system (Thermo Scientific). […] The most intense ions with charge states of 2–5 were isolated in a 3-s cycle, fragmented using higher-energy collisional dissociation (HCD) fragmentation with 32% normalized collision energy, and detected at a mass resolution of 50,000 at an m/z of 200. […]
For “Vimentin: recombinant human vimentin (PeproTech), RA autoantigen; native or citrullinated by PAD2 or PAD4”, the “Modifications (deamidated arginine = citrullinated sites detected)” value is “Deamidated [R13; R23; R36; R64; R100; R113; R158; R175; R184; R196; R207; R270; R273; R304; R310; R364; R401; R410; R424; R440; R450]”.
